Literature values, collected in patent publication US8741563B2, “Metronidazole resistance in trichomonas vaginalis and single nucleotide polymorphisms” (priority 2011, dated 2014).

Tested on: Trichomonas vaginalis
Details: reported effectiveness of metronidazole treatment

In the case of `Cc1ncc([N+](=O)[O-])n1CCO` [Metronidazole], the treatment effective is given as 85-95%.
